# Data published in ChEMBL document CHEMBL4382239, “Pharmaceutical significance of azepane based motifs for drug discovery: A critical review” (Eur J Med Chem, 2019).
# Key:
# Staphylococcus aureus [1] = experiment: Antibacterial activity against Staphylococcus aureus; format: functional
# [2] = biological target: Protein farnesyltransferase (Homo sapiens, UniProt P49354+P49356); experiment: Inhibition of human recombinant FTase using [3H]FPP as substrate after 15 mins by scintillation counting analysis; format: protein-complex assay
# Alpha-galactosidase = Alpha-galactosidase (Coffea arabica, UniProt Q42656); experiment: Inhibition of green coffee bean alpha-galactosidase
# Sequence of Alpha-galactosidase (Q42656 whole entry): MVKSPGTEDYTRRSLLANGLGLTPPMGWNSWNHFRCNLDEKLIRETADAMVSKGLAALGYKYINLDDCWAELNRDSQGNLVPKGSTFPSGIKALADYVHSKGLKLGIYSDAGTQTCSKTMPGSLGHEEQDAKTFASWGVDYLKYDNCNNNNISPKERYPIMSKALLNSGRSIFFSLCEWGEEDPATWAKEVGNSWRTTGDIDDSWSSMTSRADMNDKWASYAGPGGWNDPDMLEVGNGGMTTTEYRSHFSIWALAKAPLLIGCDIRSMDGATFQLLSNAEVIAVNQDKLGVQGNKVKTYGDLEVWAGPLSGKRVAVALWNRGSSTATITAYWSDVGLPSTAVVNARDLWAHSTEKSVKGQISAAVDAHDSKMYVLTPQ
# Bos taurus = species on record: Bos taurus; experiment: Competitive inhibition of bovine epididymis alpha-L-fucosidase at 1 mM relative to control
# [3] = Competitive inhibition of bovine epididymis alpha-L-fucosidase; design: species or system Bos taurus
# Beta-galactosidase [4] = biological target: T1, Beta-galactosidase (Aspergillus oryzae, UniProt B7VU80); experiment: Inhibition of Aspergillus oryzae beta-galactosidase
# T1 sequence (B7VU80 whole entry): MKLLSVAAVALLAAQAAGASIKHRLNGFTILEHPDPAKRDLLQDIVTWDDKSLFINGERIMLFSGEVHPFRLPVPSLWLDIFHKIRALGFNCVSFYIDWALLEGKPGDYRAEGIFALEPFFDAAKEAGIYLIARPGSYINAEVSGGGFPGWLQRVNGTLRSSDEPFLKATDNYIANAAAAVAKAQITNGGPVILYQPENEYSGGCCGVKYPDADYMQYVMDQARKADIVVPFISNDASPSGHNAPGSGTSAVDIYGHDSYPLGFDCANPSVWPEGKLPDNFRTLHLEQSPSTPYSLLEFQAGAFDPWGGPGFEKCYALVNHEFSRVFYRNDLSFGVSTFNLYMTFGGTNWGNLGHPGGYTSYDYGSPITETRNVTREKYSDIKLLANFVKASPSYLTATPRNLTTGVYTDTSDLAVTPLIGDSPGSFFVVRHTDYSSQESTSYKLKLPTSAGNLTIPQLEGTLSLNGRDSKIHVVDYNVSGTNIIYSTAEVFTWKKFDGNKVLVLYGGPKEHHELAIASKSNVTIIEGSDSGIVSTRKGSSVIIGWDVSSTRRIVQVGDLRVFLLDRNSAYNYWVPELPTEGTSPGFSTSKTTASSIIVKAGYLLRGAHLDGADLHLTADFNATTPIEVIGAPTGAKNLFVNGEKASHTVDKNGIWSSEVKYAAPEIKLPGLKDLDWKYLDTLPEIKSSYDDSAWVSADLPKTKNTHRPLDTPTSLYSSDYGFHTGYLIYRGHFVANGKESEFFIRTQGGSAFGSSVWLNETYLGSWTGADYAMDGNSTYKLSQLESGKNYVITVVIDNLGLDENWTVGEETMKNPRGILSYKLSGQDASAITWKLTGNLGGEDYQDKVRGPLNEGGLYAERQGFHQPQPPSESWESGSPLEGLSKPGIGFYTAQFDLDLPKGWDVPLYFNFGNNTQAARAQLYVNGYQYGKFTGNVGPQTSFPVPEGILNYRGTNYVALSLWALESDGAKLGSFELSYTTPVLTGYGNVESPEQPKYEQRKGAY
# [5] = Inhibition of 6His-tagged Mycobacterium tuberculosis inorganic pyrophosphatase using tetrasodium PPi as substrate after 8 mins by malachite green dye-based colorimetric analysis
# Micrococcus luteus = experiment: Antibacterial activity against Micrococcus luteus ATCC 4698 incubated for 16 to 18 hrs by serial plate dilution method; format: functional
# Staphylococcus aureus [6] = experiment: Antibacterial activity against Staphylococcus aureus ATCC 25923 incubated for 16 to 18 hrs by serial plate dilution method; format: functional
# Bacillus subtilis = experiment: Antibacterial activity against Bacillus subtilis incubated for 16 to 18 hrs by serial plate dilution method; format: functional
# Escherichia coli = experiment: Antibacterial activity against Escherichia coli DH52 incubated for 16 to 18 hrs by serial plate dilution method; format: functional
# Salmonella typhi = experiment: Antibacterial activity against […] incubated for 16 to 18 hrs by serial plate dilution method; format: functional, Salmonella enterica subsp. enterica serovar Typhi; conditions: Salmonella enterica
# Shigella dysenteriae = experiment: Antibacterial activity against Shigella dysenteriae incubated for 16 to 18 hrs by serial plate dilution method; format: functional
# Pseudomonas aeruginosa = experiment: Antibacterial activity against Pseudomonas aeruginosa incubated for 16 to 18 hrs by serial plate dilution method; format: functional
# Rattus norvegicus = experiment: Anticonvulsant activity in Wistar rat assessed as protection against MES-induced seizures at 15 mg/kg dosed via gastric tube; format: functional
# Beta-galactosidase [7] = biological target: T2, Beta-galactosidase (Homo sapiens, UniProt P16278); experiment: Inhibition of beta-galactosidase (unknown origin)
# T2 sequence (P16278 whole entry): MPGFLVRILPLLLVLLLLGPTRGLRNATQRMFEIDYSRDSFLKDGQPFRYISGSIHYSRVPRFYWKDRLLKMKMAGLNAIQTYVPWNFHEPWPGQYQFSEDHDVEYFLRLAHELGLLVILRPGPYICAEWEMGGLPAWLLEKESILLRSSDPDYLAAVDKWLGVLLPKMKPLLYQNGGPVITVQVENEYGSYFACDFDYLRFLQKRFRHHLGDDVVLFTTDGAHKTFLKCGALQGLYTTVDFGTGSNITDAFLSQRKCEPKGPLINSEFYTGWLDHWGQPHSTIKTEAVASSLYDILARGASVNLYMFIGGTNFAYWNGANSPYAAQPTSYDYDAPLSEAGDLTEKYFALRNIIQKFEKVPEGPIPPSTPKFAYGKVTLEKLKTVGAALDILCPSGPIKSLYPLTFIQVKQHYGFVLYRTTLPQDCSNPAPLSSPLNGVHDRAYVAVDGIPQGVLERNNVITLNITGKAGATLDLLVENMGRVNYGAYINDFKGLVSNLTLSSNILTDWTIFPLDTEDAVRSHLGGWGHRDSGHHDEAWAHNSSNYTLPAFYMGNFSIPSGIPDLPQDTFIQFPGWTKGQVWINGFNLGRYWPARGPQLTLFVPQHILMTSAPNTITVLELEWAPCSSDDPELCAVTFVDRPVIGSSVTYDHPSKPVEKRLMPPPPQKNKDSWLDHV
# Prunus dulcis = experiment: Competitive inhibition of almond beta-glucosidase at 1 mM relative to control
# [8] = Competitive inhibition of almond beta-glucosidase; design: species or system Prunus dulcis
# HCT-116 = experiment: Cytotoxicity against human HCT116 cells; format: functional
# HT-29 = experiment: Cytotoxicity against human HT-29 cells; format: functional
# MCF7 = experiment: Cytotoxicity against human MCF7 cells; format: functional
smiles,measurement,setting,value
NC[C@H]1O[C@H](OC2C[C@H](CO)NCC[C@@H]2N)[C@H](N)[C@@H](O)[C@@H]1O (stereo partly drawn),MIC,Staphylococcus aureus [1],64 µg/mL
NC[C@H]1O[C@H](O[C@H]2C[C@H](CO)NCC[C@H]2N)[C@H](N)[C@@H](O)[C@@H]1O,MIC,Staphylococcus aureus [1],32 µg/mL
CCC1CCCN(C)C(=O)[C+]1c1cccc(Oc2cc(C(C)(N)c3cncn3C)ccc2C#N)c1 (stereo not drawn),IC50,[2],0.06 nM
OC[C@H]1NC[C@H](O)[C@H](O)[C@@H](O)[C@@H]1O,Ki,Alpha-galactosidase,2.2 µM
O=C(O)[C@H]1CNC[C@@H](O)[C@H](O)[C@H]1O,inhibition,Bos taurus,99%
same,Ki,[3],41 µM
O=C(O)C[C@H]1NC[C@@H](O)[C@H](O)[C@H](O)[C@H]1O,IC50,Beta-galactosidase [4],21 µM
CCCCN(CCCC)c1nc(-c2cccn2CCc2ccccc2)nc(N2CCCCCC2)n1,IC50,[5],23 µM
COC(=O)C1CCCCN(c2ccc(Cl)cc2)C1C(=O)OC (stereo not drawn),MIC,Micrococcus luteus,2 to 32 µg/mL
same,MIC,Staphylococcus aureus [6],2 to 32 µg/mL
same,MIC,Bacillus subtilis,2 to 32 µg/mL
same,MIC,Escherichia coli,2 to 32 µg/mL
same,MIC,Salmonella typhi,2 to 32 µg/mL
same,MIC,Shigella dysenteriae,2 to 32 µg/mL
same,MIC,Pseudomonas aeruginosa,2 to 32 µg/mL
O=C(O)C[C@@H]1NC[C@H](O)[C@H](O)[C@H](O)[C@H]1O,IC50,Beta-galactosidase [4],279 µM
c1ccc(-n2cccc2-c2nc(N3CC3)nc(N3CC3)n2)cc1,IC50,[5],130 µM
NC(=O)N1c2ccccc2C/C(=N\O)c2ccccc21,Activity,Rattus norvegicus,90%
CCCC[C@@H]1C[C@@H](O)[C@@H](O)[C@@H](O)CN1,IC50,Beta-galactosidase [7],3 µM
O=C(O)C[C@H]1NC[C@@H](O)[C@@H](O)[C@H](O)[C@H]1O,IC50,Beta-galactosidase [4],215 µM
CN(C)c1nc(-c2cccn2-c2ccccc2)nc(N(C)C)n1,IC50,[5],540 µM
COC(=O)C1CCCCN(c2ccccn2)C1C(=O)OC (stereo not drawn),MIC,Micrococcus luteus,1 to 16 µg/mL
same,MIC,Staphylococcus aureus [6],1 to 16 µg/mL
same,MIC,Bacillus subtilis,1 to 16 µg/mL
same,MIC,Escherichia coli,1 to 16 µg/mL
same,MIC,Salmonella typhi,1 to 16 µg/mL
same,MIC,Shigella dysenteriae,1 to 16 µg/mL
same,MIC,Pseudomonas aeruginosa,1 to 16 µg/mL
C[C@@H]1CNC[C@@H](O)[C@H](O)[C@H]1O,inhibition,Prunus dulcis,100%
same,Ki,[8],2.5 µM
CC(C)O[C@H]1[C@H](OC(C)C)[C@H](O)CN(Cc2ccc(OCCCOc3ccc(CN4C[C@@H](O)[C@@H](OC(C)C)[C@H](OC(C)C)[C@H](O)C4)cc3)cc2)C[C@H]1O,GI50,HCT-116,6 µM
same,GI50,HT-29,23 µM
same,GI50,MCF7,24 µM
